Laboratory results: ChEMBL document CHEMBL1125702 (J Med Chem, 1991)

System: Cynomolgus monkey
Assay: Compound was evaluated for pseudo Hill coefficients (nH) in cynomolgus monkeys
Assay type: ADME, organism-based, Macaca fascicularis
Details: in vivo

Structure (SMILES)	Hill coefficient
COC(=O)C1C2CCC(C[C@@H]1c1ccc(F)cc1)N2 (stereo not given in full)	0.64 nH
C=CCN1C2CCC1C(C(=O)OC)[C@@H](c1ccc(F)cc1)C2 (stereo not given in full)	0.65 nH
COC(=O)[C@H]1[C@@H](OC(=O)c2ccccc2)C[C@@H]2CC[C@H]1N2C [COCAINE]	0.54 nH
CCCN1C2CCC1C(C(=O)OC)[C@@H](c1ccc(F)cc1)C2 (stereo not given in full)	0.7 nH
COC(=O)[C@H]1[C@@H](c2ccc(F)cc2)C[C@H]2CC[C@H]1N2C	0.66 nH
